Measured values as given in patent publication US10611760B2, “Therapeutic compounds as inhibitors of the orexin-1 receptor” (C4X Discovery Limited, priority 2014, dated 2020).

Assays:
hOX2R = target: T1, hOX2R (Homo sapiens, UniProt O43614); assay: Intracellular calcium measurements using division-arrested cells, OX2; format: cell-based; conditions: agonist orexin B at 2×EC50, * = single experiment, otherwise average of at least two, read-out: pIC50 OX2 (converted)
T1 sequence (O43614 1-444): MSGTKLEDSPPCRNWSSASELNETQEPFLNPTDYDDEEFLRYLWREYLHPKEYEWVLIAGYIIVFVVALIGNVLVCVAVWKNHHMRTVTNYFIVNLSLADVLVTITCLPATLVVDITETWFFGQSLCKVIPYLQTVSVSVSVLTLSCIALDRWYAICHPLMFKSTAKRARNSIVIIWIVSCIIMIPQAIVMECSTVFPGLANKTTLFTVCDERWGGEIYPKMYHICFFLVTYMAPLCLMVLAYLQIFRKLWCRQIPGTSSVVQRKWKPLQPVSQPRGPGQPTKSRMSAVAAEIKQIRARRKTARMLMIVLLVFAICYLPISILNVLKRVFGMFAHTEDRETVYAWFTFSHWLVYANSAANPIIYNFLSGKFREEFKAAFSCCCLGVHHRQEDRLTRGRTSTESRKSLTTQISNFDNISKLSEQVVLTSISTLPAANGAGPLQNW
Procedure: (§1) Intracellular Calcium Measurements Using Division-arrested Cells (Table 1):
(§2) Test compounds are prepared as 10 mM stock solutions in DMSO, then serially diluted in half log concentrations with DMSO followed by dilution with assay buffer (HBSS (Sigma-Aldrich, H8264) containing 20 mM HEPES (Sigma-Aldrich, H4034), 0.1% (w/v) bovine serum albumin and adjusted to pH 7.4) to a top final assay concentration of 10 μM.
(§3) Human OX1 (CT-A474) and human OX2 (CT-A475) receptor-expressing division-arrested cells are plated into 384 well black, clear bottom, cell-bind plates at a seeding density of 10,000 cells/50 μL growth media. The seeded plates are incubated at 37° C. in air supplemented with 5% CO2 for 16 hrs.
(§4) The media is removed and replaced with 30 μL/well of cell loading buffer (a vial of Calcium 5 is solubilized in 22 mL of assay buffer to which a freshly prepared 250 mM solution of probenecid in 1:1 1M NaOH to assay buffer (200 μL) is added) and the cells incubated for 1 hr at 37° C. The serially diluted test compounds (10 μL/well) are added to the plate, which is then incubated for 10 mins and placed in a FlexStation III reader.

hOX1R = target: T2, hOX1R (Homo sapiens, UniProt O43613); assay: Intracellular calcium measurements using division-arrested cells, OX1; format: cell-based; conditions: agonist orexin A at 2×EC50, * = single experiment, otherwise average of at least two, read-out: pIC50 OX1 (converted)
T2 sequence (O43613 1-425): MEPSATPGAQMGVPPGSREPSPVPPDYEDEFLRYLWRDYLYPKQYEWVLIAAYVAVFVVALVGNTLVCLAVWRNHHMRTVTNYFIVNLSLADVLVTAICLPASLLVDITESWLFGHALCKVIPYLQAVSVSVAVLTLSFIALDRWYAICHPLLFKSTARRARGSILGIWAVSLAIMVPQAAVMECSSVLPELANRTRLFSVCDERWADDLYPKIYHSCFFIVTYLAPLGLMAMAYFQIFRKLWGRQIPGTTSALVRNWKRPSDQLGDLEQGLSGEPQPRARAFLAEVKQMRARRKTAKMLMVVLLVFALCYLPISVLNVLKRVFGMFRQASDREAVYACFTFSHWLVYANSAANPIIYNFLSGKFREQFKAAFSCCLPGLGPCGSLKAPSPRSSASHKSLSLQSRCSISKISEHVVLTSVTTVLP
Procedure: as §1, §2, §3, §4

SMILES | IC50 (hOX2R) | IC50 (hOX1R)
Cc1cc(C(=O)N(C)[C@H](CNc2ccc(Cl)cn2)C(C)C)c2ccccc2n1 [Example 51, (S)—N-(1-((5-chloropyridin-2-yl)amino)-3-methylbutan-2-yl)-N,2-dimethylquinoline-4-carboxamide] | > 10000 nM | 631 nM
Cc1nc(-c2ccccc2)c(C(=O)N(C)[C@H](CNc2ccc(Cl)cn2)C(C)C)s1 [Example 11, (S)—N-(1-((5-chloropyridin-2-yl)amino)-3-methylbutan-2-yl)-N,2-dimethyl-4-phenylthiazole-5-carboxamide] | > 7940 nM | 79.4 nM
CC(C)[C@@H](COc1ccc(Cl)cn1)N(C)C(=O)c1ccccc1-c1ccccc1 [Example 34, (S)—N-(1-((5-chloropyridin-2-yl)oxy)-3-methylbutan-2-yl)-N-methyl-[1,1′-biphenyl]-2-carboxamide] | > 3160 nM | 200 nM
CC(C)[C@@H](CNc1ccc(Cl)cc1)N(C)C(=O)c1ccccc1-c1ccccc1 [Example 59, (S)—N-(1-((4-chlorophenyl)amino)-3-methylbutan-2-yl)-N-methyl-[1,1′-biphenyl]-2-carboxamide] | > 6310 nM | 158 nM
CC[C@@H](CNc1ccc(Cl)cn1)N(C)C(=O)c1cc(C)ccc1N1CCOCC1 [Example 22, (S)—N-(1-((5-chloropyridin-2-yl)amino)butan-2-yl)-N,5-dimethyl-2-morpholinobenzamide] | > 10000 nM | –
CC[C@@H](CNc1ccc(C(F)(F)F)nc1)N(C)C(=O)c1cc(Cl)ccc1-n1nccn1 [Example 54, (S)-5-chloro-N-methyl-2-(2H-1,2,3-triazol-2-yl)-N-(1-((6-(trifluoromethyl)pyridin-3-yl)amino)butan-2-yl)benzamide] | 1260 nM | 20 nM
CC(C)C[C@@H](CNc1ccc(Cl)cn1)NC(=O)c1ccccc1-c1ccccc1 [Example 5, (S)—N-(1-((5-chloropyridin-2-yl)amino)-4-methylpentan-2-yl)-[1,1′-biphenyl]-2-carboxamide] | > 10000 nM | 1000 nM
CC(C)[C@@H](CNc1ccc(Cl)cn1)NC(=O)c1ccccc1-c1ccccc1 [Example 4, (S)—N-(1-((5-chloropyridin-2-yl)amino)-3-methylbutan-2-yl)-[1,1′-biphenyl]-2-carboxamide] | > 10000 nM | 158 nM
CC(C)[C@@H](CNc1ccc(Cl)cn1)N(C)C(=O)c1c(-c2ccccc2)[nH]c2ccccc12 [Example 27, (S)—N-(1-((5-chloropyridin-2-yl)amino)-3-methylbutan-2-yl)-N-methyl-2-phenyl-1H-indole-3-carboxamide] | 501 nM | 158 nM
Cc1nc(C(=O)N(C)[C@H](CNc2ccc(Cl)cn2)C(C)C)c(-c2ccccc2)s1 [Example 26, (S)—N-(1-((5-chloropyridin-2-yl)amino)-3-methylbutan-2-yl)-N,2-dimethyl-5-phenylthiazole-4-carboxamide] | 2000 nM | 31.6 nM
CC[C@@H](CNc1ccc(Cl)cn1)NC(=O)c1cc(C)ccc1-n1nccn1 [Example 2, (S)—N-(1-((5-chloropyridin-2-yl)amino)butan-2-yl)-5-methyl-2-(2H-1,2,3-triazol-2-yl)benzamide] | 2000 nM | 39.8 nM
CC[C@@H](CNc1ccc(C(F)(F)F)cn1)N(C)C(=O)c1nc(C)ccc1-n1nccn1 [Example 48, (S)—N,6-dimethyl-3-(2H-1,2,3-triazol-2-yl)-N-(1-((5-(trifluoromethyl)pyridin-2-yl)amino)butan-2-yl)picolinamide] | 2510 nM | 12.6 nM
CC[C@@H](CNc1ccc(Cl)cn1)NC(=O)c1cc(Cl)ccc1-n1nccn1 [Example 25, (S)-5-chloro-N-(1-((5-chloropyridin-2-yl)amino)butan-2-yl)-2-(2H-1,2,3-triazol-2-yl)benzamide] | > 10000 nM | 631 nM
CC(C)[C@@H](CNc1ccc(Cl)cn1)N(C)C(=O)c1ccccc1OC(F)(F)F [Example 52, (S)—N-(1-((5-chloropyridin-2-yl)amino)-3-methylbutan-2-yl)-N-methyl-2-(trifluoromethoxy)benzamide] | > 7940 nM | 1000 nM
CC(C)[C@@H](CNC(=O)c1ccc(F)cc1)N(C)C(=O)c1ccccc1-c1ccccc1 [Example 56, (S)—N-(1-(4-fluorobenzamido)-3-methylbutan-2-yl)-N-methyl-[1,1′-biphenyl]-2-carboxamide] | > 3160 nM | 126 nM
CC(C)[C@@H](CNc1nc2ccccc2n1C)N(C)C(=O)c1ccccc1-c1ccccc1 [Example 38, (S)—N-methyl-N-(3-methyl-1-((1-methyl-1H-benzo[d]imidazol-2-yl)amino)butan-2-yl)-[1,1′-biphenyl]-2-carboxamide] | > 3980 nM | 79.4 nM
CC[C@@H](CNc1ccc(Cl)cn1)N(C)C(=O)c1ccccc1-c1ccccc1 [Example 3, (S)—N-(1-((5-chloropyridin-2-yl)amino)butan-2-yl)-N-methyl-[1,1′-biphenyl]-2-carboxamide] | 1000 nM | 20 nM
CC(C)[C@@H](CNc1ccc(Cl)cn1)N(C(=O)c1ccccc1-c1ccccc1)C1CC1 [Example 15, (S)—N-(1-((5-chloropyridin-2-yl)amino)-3-methylbutan-2-yl)-N-cyclopropyl-[1,1′-biphenyl]-2-carboxamide] | > 10000 nM | –
CC[C@@H](CNc1ccc(Cl)cn1)N(C)C(=O)c1cc(Cl)ccc1-n1nccn1 [Example 16, (S)-5-chloro-N-(1-((5-chloropyridin-2-yl)amino)butan-2-yl)-N-methyl-2-(2H-1,2,3-triazol-2-yl)benzamide] | 1260 nM | 12.6 nM
Cc1cc(C)nc(OC[C@H](C(C)C)N(C)C(=O)c2ccccc2-c2ccccc2)n1 [Example 30, (S)—N-(1-((4,6-dimethylpyrimidin-2-yl)oxy)-3-methylbutan-2-yl)-N-methyl-[1,1′-biphenyl]-2-carboxamide] | > 5010 nM | 1580 nM
CN(C(=O)c1ccccc1-c1ccccc1)[C@H](CNc1ccc(Cl)cn1)C(C)(C)C [Example 12, (S)—N-(1-((5-chloropyridin-2-yl)amino)-3,3-dimethylbutan-2-yl)-N-methyl-[1,1′-biphenyl]-2-carboxamide] | > 10000 nM | 1000 nM
CC(C)[C@@H](CNc1nccc(-c2ccccc2)n1)N(C)C(=O)c1ccccc1-c1ccccc1 [Example 35, (S)—N-methyl-N-(3-methyl-1-((4-phenylpyrimidin-2-yl)amino)butan-2-yl)-[1,1′-biphenyl]-2-carboxamide] | 2000 nM | 79.4 nM
CC(C)[C@@H](CNc1ccc(Cl)cn1)N(C)C(=O)c1ccccc1-n1nccn1 [Example 28, (S)—N-(1-((5-chloropyridin-2-yl)amino)-3-methylbutan-2-yl)-N-methyl-2-(2H-1,2,3-triazol-2-yl)benzamide] | > 10000 nM | 200 nM
CN(C(=O)c1ccccc1-c1ccccc1)[C@H](CNc1ccc(Cl)cn1)C1CC1 [Example 13, (S)—N-(2-((5-chloropyridin-2-yl)amino)-1-cyclopropylethyl)-N-methyl-[1,1′-biphenyl]-2-carboxamide] | 2510 nM | 39.8 nM
CC[C@@H](CNc1cnc(C(F)(F)F)cn1)N(C)C(=O)c1cc(Cl)ccc1-n1nccn1 [Example 40, (S)-5-chloro-N-methyl-2-(2H-1,2,3-triazol-2-yl)-N-(1-((5-(trifluoromethyl)pyrazin-2-yl)amino)butan-2-yl)benzamide] | 2510 nM | 15.8 nM
CC[C@@H](CNc1ccc(C(F)(F)F)cn1)N(C)C(=O)c1cc(Cl)ccc1-n1nccn1 [Example 42, (S)-5-chloro-N-methyl-2-(2H-1,2,3-triazol-2-yl)-N-(1-((5-(trifluoromethyl)pyridin-2-yl)amino)butan-2-yl)benzamide] | 1000 nM | –
